Assay results: US8815893B2, “Hetarylaminonaphthyridines” (Merck Patent GmbH, priority 2010, dated 2014)

Assays:
[1] = biological target: T1, GST-ALK5 (Homo sapiens, UniProt P36897); assay: In-vitro (enzyme) kinase assay, 384-well flashplate (example 14); assay type: biochemical; details: GST-ALK5, GST-SMAD2 substrate, 33P-ATP flashplate, 30° C. 45 min; IC50 classes; read-out: TβR activity (example 14)
T1 sequence (P36897 34-503): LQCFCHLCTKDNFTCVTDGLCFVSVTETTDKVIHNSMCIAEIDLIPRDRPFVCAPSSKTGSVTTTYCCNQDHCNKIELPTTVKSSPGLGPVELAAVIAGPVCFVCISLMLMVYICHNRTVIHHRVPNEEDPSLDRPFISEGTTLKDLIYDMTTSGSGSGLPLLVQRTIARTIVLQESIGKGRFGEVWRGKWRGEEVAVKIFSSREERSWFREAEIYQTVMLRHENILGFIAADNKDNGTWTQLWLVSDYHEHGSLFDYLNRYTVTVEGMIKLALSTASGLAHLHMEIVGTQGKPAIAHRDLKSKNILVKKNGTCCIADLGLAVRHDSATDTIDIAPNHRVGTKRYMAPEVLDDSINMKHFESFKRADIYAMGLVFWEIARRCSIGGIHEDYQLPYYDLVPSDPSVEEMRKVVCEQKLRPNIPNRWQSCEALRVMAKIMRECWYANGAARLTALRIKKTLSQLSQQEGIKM
Method: In-Vitro (Enzyme) Assay for Determination of the Efficacy of Inhibitors of the Inhibition of TGF-Beta-Mediated Effects
The kinase assay was carried out as 384-well flashplate assay. 31.2 nM of GST-ALK5, 439 nM of GST-SMAD2 and 3 mM of ATP (with 0.3 μCi of ^33P-ATP/well) were incubated in a total volume of 35 μl (20 mM of HEPES, 10 mM of MgCl2, 5 mM of MnCl2, 1 mM of DTT, 0.1% of BSA, pH 7.4) without or with test substance (5-10 concentrations) at 30° C. for 45 min. The reaction was stopped using 25 μl of 200 mM EDTA solution, filtered with suction at room temperature after 30 min, and the wells were washed with 3 times 100 μl of 0.9% NaCl solution. Radioactivity was measured in the TopCount. The IC50 values were calculated using RS1. Above and below, all temperatures were indicated in ° C.

[2] = system: lung epithelial cell line Mv1Lu; assay: Cellular assay for TGF-beta receptor I kinase inhibitors: elimination of TGF-beta-mediated growth inhibition (example 13); assay type: cell-based; details: 48 h; Mv1Lu cells, 1 ng/ml TGF-beta, 0.5% FCS, two days, Crystal Violet staining; read-out: TβR activity (example 13)
Method: Cellular Assay for Testing TGF-Beta Receptor I Kinase Inhibitors
As an example, the ability of the inhibitors to eliminate TGF-beta-mediated growth inhibition was tested. Cells of the lung epithelial cell line Mv1Lu were sown in a defined cell density in a 96-well microtiter plate and cultivated overnight under standard conditions. Next day, the medium was replaced by medium which comprises 0.5% of FCS and 1 ng/ml of TGF-beta, and the test substances were added in defined concentrations, generally in the form of dilution series with 5 fold steps. The concentration of the solvent DMSO was constant at 0.5%. After a further two days, Crystal Violet staining of the cells was carried out. After extraction of the Crystal Violet from the fixed cells, the absorption was measured spectrophotometrically at 550 nm. It could be used as a quantitative measure of the adherent cells present and thus of the cell proliferation during the culture.

IC50 [1]	Compound	IC50 [2]
< 100 nM	NCCC(=O)Nc1cc(Nc2cc(-c3cc(Cl)ccc3F)nc3ncccc23)ncn1 [compound 94]	< 100 nM
100 to 1000 nM	CS(=O)(=O)Nc1cc(Nc2cc(-c3cc(Cl)ccc3F)nc3ncccc23)ccn1 [compound 74]	1000 to 10000 nM
100 to 1000 nM	CN(C)CCNc1cc(Nc2cc(-c3cc(Cl)ccc3F)nc3ncccc23)ncn1 [compound 120]	100 to 1000 nM
< 100 nM	Cc1cccc(-c2cc(Nc3ccnc(NC(N)=O)c3)c3cccnc3n2)n1 [compound 85]	100 to 1000 nM
< 100 nM	O=[N+]([O-])c1cn(-c2cc(-c3cc(Cl)ccc3F)nc3ncccc23)c2ccncc12 [compound 139]	1000 to 10000 nM
< 100 nM	CNc1nccc(Nc2cc(-c3cccc(C)n3)nc3ncccc23)n1 [compound 90]	100 to 1000 nM
1000 to 10000 nM	Fc1ccc(Cl)cc1-c1cc(Cc2ccncc2)c2cccnc2n1 [compound 75]	> 10000 nM
< 100 nM	CC(=O)Nc1nccc(Nc2cc(-c3cc(Cl)ccc3F)nc3ncccc23)n1 [compound 98]	< 100 nM
100 to 1000 nM	CNC(=O)c1cc(Nc2cc(-c3cc(F)ccc3F)nc3ncccc23)ccn1 [compound 118]	1000 to 10000 nM
< 100 nM	Cc1cccc(-c2cc(-n3nc(C)c4cnccc43)c3cccnc3n2)n1 [compound 77]	1000 to 10000 nM
< 100 nM	Cc1nn(-c2cc(-c3cc(F)ccc3F)nc3ncccc23)c2ccncc12 [compound 100]	100 to 1000 nM
1000 to 10000 nM	Cc1cc(-c2cc(Nc3cc(NCCN4CCCC4)ncn3)c3cccnc3n2)c(C)o1 [compound 147]	> 10000 nM
< 100 nM	CC(C)(C)CC(=O)Nc1cc(Nc2cc(-c3cc(Cl)ccc3F)nc3ncccc23)ncn1 [compound 104]	< 100 nM
> 10000 nM	CCOC(=O)c1cc(Nc2cc(-c3cc(F)ccc3F)nc3ncccc23)ccn1 [compound 128]	> 10000 nM
< 100 nM	Nc1cc(Nc2cc(-c3cc(F)ccc3F)nc3ncccc23)ncn1 [compound 106]	100 to 1000 nM
< 100 nM	CC(=O)Nc1cc(Nc2cc(-c3cc(F)ccc3F)nc3ncccc23)ncn1 [compound 89]	< 100 nM
> 10000 nM	Cc1cccc(-c2cc(Nc3cc(F)nc(N4CCOCC4)n3)c3cccnc3n2)n1 [compound 84]	> 10000 nM

Continued, molecule first:

Compound	IC50 [1]	IC50 [2]
CN1CCC(C(=O)Nc2cc(Nc3cc(-c4ccccc4F)nc4ncccc34)ncn2)CC1 [compound 115]	< 100 nM	100 to 1000 nM
CN1CCC(C(=O)Nc2cc(Nc3cc(-c4cc(F)ccc4F)nc4ncccc34)ncn2)CC1 [compound 117]	< 100 nM	< 100 nM
CCN1CCC(CNc2cc(Nc3cc(-c4cc(F)ccc4F)nc4ncccc34)ncn2)CC1 [compound 141]	< 100 nM	100 to 1000 nM
Fc1ccc(Cl)cc1-c1cc(-n2cc(Br)c3cnccc32)c2cccnc2n1 [compound 144]	< 100 nM	< 100 nM
CC(C)(C)OC(=O)NC(C)(C)C(=O)Nc1cc(Nc2cc(-c3cc(Cl)ccc3F)nc3ncccc23)ncn1 [compound 134]	> 10000 nM	> 10000 nM
CC(C)(C)CCNc1cc(Nc2cc(-c3cc(Cl)ccc3F)nc3ncccc23)ncn1 [compound 126]	100 to 1000 nM	100 to 1000 nM
Fc1ccc(Cl)cc1-c1cc(Nc2ccnc(-c3cccnc3)n2)c2cccnc2n1 [compound 97]	1000 to 10000 nM	> 10000 nM
OCc1cnccc1Nc1cc(-c2cc(F)ccc2F)nc2ncccc12 [compound 78]	< 100 nM	< 100 nM
CC(C)(C)OC(=O)NCC(=O)Nc1cc(Nc2cc(-c3cc(Cl)ccc3F)nc3ncccc23)ncn1 [compound 109]	< 100 nM	< 100 nM
CC(C)NC(=O)c1cnccc1Nc1cc(-c2cc(Cl)ccc2F)nc2ncccc12 [compound 99]	< 100 nM	< 100 nM
Fc1ccc(F)c(-c2cc(Nc3cc(Cl)ncn3)c3cccnc3n2)c1 [compound 103]	100 to 1000 nM	> 10000 nM
CC(C)(C)CC(=O)Nc1cc(Nc2cc(-c3ccccc3F)nc3ncccc23)ncn1 [compound 114]	< 100 nM	100 to 1000 nM
Cc1cccc(-c2cc(Nc3ccnc(Cl)c3)c3cccnc3n2)n1 [compound 83]	100 to 1000 nM	1000 to 10000 nM
O=C(CO)Nc1cc(Nc2cc(-c3cc(Cl)ccc3F)nc3ncccc23)ccn1 [compound 82]	< 100 nM	< 100 nM
Cc1cccc(-c2cc(Nc3ccncc3CO)c3cccnc3n2)n1 [compound 81]	< 100 nM	100 to 1000 nM
Cc1cccc(-c2cc(Nc3ccncc3Cl)c3cccnc3n2)n1 [compound 80]	< 100 nM	< 100 nM
Fc1ccc(Cl)cc1-c1cc(Nc2cc(NC3CCCCC3)ncn2)c2cccnc2n1 [compound 124]	1000 to 10000 nM	> 10000 nM
O=c1c2cnccc2c(-c2cc(-c3cc(Cl)ccc3F)nc3ncccc23)cn1CCN1CCCC1 [compound 146]	100 to 1000 nM	100 to 1000 nM
CN1CCC(NC(=O)c2cnccc2Nc2cc(-c3cc(F)ccc3F)nc3ncccc23)CC1 [compound 113]	< 100 nM	< 100 nM

Compound	IC50 [1]	IC50 [2]
Cc1cc(-c2cc(Nc3cc(N(C)C)ncn3)c3cccnc3n2)c(C)o1 [compound 145]	> 10000 nM	> 10000 nM
CN1CCN(c2nccc(Nc3cc(-c4cc(Cl)ccc4F)nc4ncccc34)n2)CC1 [compound 93]	> 10000 nM	> 10000 nM
CC(=O)Nc1cc(Nc2cc(-c3ccccc3F)nc3ncccc23)ncn1 [compound 88]	< 100 nM	100 to 1000 nM
CC(C)(C)CC(=O)Nc1cc(Nc2cc(-c3cc(Cl)ccc3F)nc3ncccc23)ccn1 [compound 87]	< 100 nM	< 100 nM
CC(C)(C)OC(=O)NCCCC(=O)Nc1cc(Nc2cc(-c3cc(Cl)ccc3F)nc3ncccc23)ncn1 [compound 131]	< 100 nM	< 100 nM
O=C(NCCN1CCCC1)c1cc(Nc2cc(-c3cc(F)ccc3F)nc3ncccc23)ccn1 [compound 122]	1000 to 10000 nM	> 10000 nM
CCOC(=O)NCC(=O)Nc1cc(Nc2cc(-c3cc(Cl)ccc3F)nc3ncccc23)ncn1 [compound 130]	< 100 nM	< 100 nM
Nc1cc(Nc2cc(-c3ccccc3F)nc3ncccc23)ncn1 [compound 86]	< 100 nM	100 to 1000 nM
Fc1ccc(F)c(-c2cc(Nc3ccnc(Cl)c3)c3cccnc3n2)c1 [compound 125]	< 100 nM	1000 to 10000 nM
CN(C)CC(=O)Nc1cc(Nc2cc(-c3cc(Cl)ccc3F)nc3ncccc23)ncn1 [compound 112]	< 100 nM	< 100 nM
O=C(NCCN1CCCC1)c1cnccc1Nc1cc(-c2cc(Cl)ccc2F)nc2ncccc12 [compound 133]	< 100 nM	< 100 nM
CN(C)c1cc(Nc2cc(-c3cc(F)ccc3F)nc3ncccc23)ncn1 [compound 137]	> 10000 nM	> 10000 nM
CC(C)Oc1cccc(-c2cc(Nc3cc(NCCN4CCCC4)ncn3)c3cccnc3n2)c1 [compound 148]	> 10000 nM	1000 to 10000 nM
CN1CCC(C(=O)Nc2cc(Nc3cc(-c4cc(Cl)ccc4F)nc4ncccc34)ncn2)CC1 [compound 111]	< 100 nM	< 100 nM
CCCC(=O)Nc1cc(Nc2cc(-c3cc(Cl)ccc3F)nc3ncccc23)ccn1 [compound 91]	< 100 nM	< 100 nM
NC(=O)Nc1cc(Nc2cc(-c3cc(F)ccc3F)nc3ncccc23)ccn1 [compound 143]	< 100 nM	< 100 nM
O=c1[nH]cc(-c2cc(-c3cc(Cl)ccc3F)nc3ncccc23)c2ccncc12 [compound 140]	< 100 nM	< 100 nM
Cc1ccc(-c2cc(Nc3ccncc3)c3cccnc3n2)o1 [compound 123]	100 to 1000 nM	100 to 1000 nM
Oc1nccc(Nc2cc(-c3cc(Cl)ccc3F)nc3ncccc23)n1 [compound 76]	100 to 1000 nM	1000 to 10000 nM
